The record followed here is US11912676B1, “N'-[(4-chlorobenzoyl)oxy]-1,3-benzothiazole-2-carboximidamide as an antitumor and antimicrobial compound” (KING FAISAL UNIVERSITY, priority 2023, dated 2024).

Each structure is given as a SMILES string.

The test system of data set [1] is human prostate cancer cells (PC3). Description: Cytotoxicity by SRB assay, PC3 cells. To be noted: 0.01 μM to 100 μM, 72 h. Type of data set: cell-based. The procedure:
(§1) The human prostate cancer cells (PC3) and human osteosarcoma cells (MG-63) were obtained from Nawah Scientific Inc. (Mokatam, Cairo, Egypt) and cultured in DMEM (Dulbecco's modified eagle's medium), Gibco, USA, supplemented with fetal bovine serum (FBS) at a concentration of 10% and 100 U/mL of penicillin and streptomycin (PS). The Cells were incubated at 37° C. in a humidified environment that contained 5% CO2. Cells were seeded in 96-well plates as aliquots of 100 μL cell suspension and incubated in a complete media for 24 h. afterward, cells were treated with N′-[(4-chlorobenzoyl)oxy]-1,3-benzothiazole-2-carboximidamide at diverse concentrations ranging from 0.01 μM to 100 μM for 72 h. Then, cells were fixed at 4° C. for one hour with 150 μL of 10% trichloroacetic acid (TCA). After washing the cells five times with distilled water, 70 μL of sulforhodamine (SRB) solution (0.4% w/v) was added and incubated for 10 min at room temperature in a dark place. […] Then, 150 μL of Tris pH 10.5 (10 mM) was added, and the absorbance was measured at 540 nm using a BMG LABTECH®--FLUOstar Omega microplate reader (Ortenberg, Germany). Half maximal inhibitory concentrations (IC50) values were calculated for each experiment using GraphPad Prism 6 software. […] The inhibition was calculated using the following equation: Inhibition %=100−Average Viability
(In general: Sulforhodamine B stains cellular protein and so reports cell mass.)

The subject of data set [2] is human osteosarcoma cells (MG-63). The data set can be described thus: Cytotoxicity by SRB assay, MG-63 cells. Type of data set: cell-based. The settings on record: 0.01 μM to 100 μM, 72 h. Here is the method: as §1

On to `N/C(Cc1nc2ccccc2s1)=N\OC(=O)c1ccc(Cl)cc1`, for which the melting point – broadly, the temperature, or range, at which the solid turns liquid – was in the range of 160 to 162 °C. In addition, the “antiproliferative activity against PC3 cells” value in data set [1] is listed as “excellent antiproliferative activities”. For the same molecule, the “antiproliferative activity against MG-63 cells” value in data set [2] is reported as “excellent antiproliferative activities”.
